Results from DBAASP.
In brackets after ≈: the same amount, converted by molar mass.

How the values were obtained:
Assay in all cases: ≥ marks a high value that may be exact or a test limit, other limits are often not marked, values filed in µg/mL are converted to µM
Bacillus megaterium = tested on: Bacillus megaterium
[1] = tested on: Candida albicans ATCC 2002
[2] = tested on: Escherichia coli ATCC 25922
Klebsiella pneumoniae = tested on: Klebsiella pneumoniae
[3] = tested on: Pseudomonas aeruginosa CMCCB 10104
Shigella dysenteriae = tested on: Shigella dysenteriae
[4] = tested on: Staphylococcus aureus ATCC 2592
[5] = tested on: Clavibacter michiganensis subsp. michiganensis DSM 46294
[6] = tested on: Pectobacterium carotovorum subsp. carotovorum DSM 30168
[7] = tested on: Pseudomonas corrugata DSM 7228
[8] = tested on: Pseudomonas syringae pv. syringae DSM 10604
[9] = tested on: Pseudomonas syringae pv. tomato DC3000
[10] = tested on: Xanthomonas vesicatoria DSM 50861
[11] = tested on: Bacillus subtilis ATCC 6633
[12] = tested on: Klebsiella pneumoniae ATCC 10031
[13] = tested on: Pseudomonas aeruginosa ATCC 27853
[14] = tested on: Salmonella enterica subsp. enterica serovar Typhimurium ATCC 14028
[15] = tested on: Shigella dysenteriae ATCC 9752
[16] = tested on: Staphylococcus aureus ATCC 6538P
[17] = tested on: Staphylococcus epidermidis ATCC 12228
Escherichia coli K-12 = tested on: Escherichia coli K-12
[18] = tested on: Staphylococcus aureus ATCC 6538
[19] = tested on: Staphylococcus aureus USA 300
Leuconostoc lactis = tested on: Leuconostoc lactis
Listeria innocua = tested on: Listeria innocua

Row | MIC [2] | MIC [5] | MIC [6] | MIC [7] | MIC [8] | MIC [9] | MIC [10] | SMILES | other results
1 |  | 0.204 µM (≈ 0.5 µg/mL) | 4.08 µM (≈ 10 µg/mL) | 0.102 µM (≈ 0.25 µg/mL) | 0.204 µM (≈ 0.5 µg/mL) | 1.02 µM (≈ 2.5 µg/mL) | 0.102 µM (≈ 0.25 µg/mL) | CC(C)C[C@H](NC(=O)[C@H](C)NC(=O)[C@H](Cc1ccccc1)NC(=O)[C@H](CCCN=C(N)N)NC(=O)[C@H](Cc1ccccc1)NC(=O)[C@H](C)NC(=O)[C@H](CCCN=C(N)N)NC(=O)[C@H](Cc1ccccc1)NC(=O)[C@H](C)NC(=O)[C@H](CC(C)C)NC(=O)[C@H](CCCCN)NC(=O)[C@H](CCCN=C(N)N)NC(=O)[C@H](CCCN=C(N)N)NC(=O)[C@@H](N)CCCCN)C(=O)N[C@@H](CCCCN)C(=O)N[C@@H](C)C(=O)N[C@H](C(=O)N[C@@H](CC(C)C)C(=O)N[C@@H](CCCCN)C(=O)N[C@@H](CCCCN)C(N)=O)C(C)C [KRRKLAFRAFRFALKAVLKK] | 
2 | > 245 µM |  |  |  |  |  |  | CC(C)C[C@H](NC(=O)[C@H](Cc1c[nH]c2ccccc12)NC(=O)[C@H](CCCCN)NC(=O)[C@H](CCCCN)NC(=O)[C@@H](N)CC(C)C)C(=O)N[C@@H](CCCCN)C(N)=O [LKKWLK] | MIC [11]: ≥ 245 µM; MIC [12]: ≥ 245 µM; MIC [13]: > 245 µM; MIC [14]: > 245 µM; MIC [15]: ≥ 245 µM; MIC [16]: ≥ 245 µM; MIC [17]: > 245 µM
3 | 1.03 µM (≈ 2.7 µg/mL) |  |  |  |  |  |  | CC[C@H](C)[C@H](NC(=O)CN)C(=O)NCC(=O)NCC(=O)N[C@H](C(=O)N[C@@H](CC(C)C)C(=O)N[C@@H](CC(C)C)C(=O)N[C@@H](CO)C(=O)N[C@@H](C)C(=O)NCC(=O)N[C@@H](CCCCN)C(=O)N[C@@H](C)C(=O)N[C@@H](C)C(=O)N[C@@H](CC(C)C)C(=O)N[C@@H](CCCCN)C(=O)NCC(=O)N[C@@H](CC(C)C)C(=O)N[C@@H](C)C(=O)N[C@@H](CCCCN)C(=O)N[C@H](C(=O)N[C@@H](CC(C)C)C(=O)N[C@@H](C)C(=O)N[C@@H](CCC(=O)O)C(=O)N[C@@H](CCCCN)C(=O)N[C@@H](Cc1ccc(O)cc1)C(=O)N[C@@H](C)C(=O)N[C@@H](CC(N)=O)C(N)=O)C(C)C)C(C)C [GIGGVLLSAGKAALKGLAKVLAEKYAN] | MIC (Bacillus megaterium): 0.574 µM (≈ 1.5 µg/mL); MIC [1]: 5.74 µM (≈ 15 µg/mL); MIC (Klebsiella pneumoniae): 5.74 µM (≈ 15 µg/mL); MIC [3]: 1.03 µM (≈ 2.7 µg/mL); MIC (Shigella dysenteriae): 1.03 µM (≈ 2.7 µg/mL); MIC [4]: 1.03 µM (≈ 2.7 µg/mL)
4 |  | 0.103 µM (≈ 0.25 µg/mL) | 4.11 µM (≈ 10 µg/mL) | 0.103 µM (≈ 0.25 µg/mL) | 4.11 µM (≈ 10 µg/mL) | 4.11 µM (≈ 10 µg/mL) | 0.0411 µM (≈ 0.0999 µg/mL) | CC[C@H](C)[C@H](NC(=O)[C@H](C)NC(=O)[C@H](CCCCN)NC(=O)[C@H](C)NC(=O)[C@@H](NC(=O)[C@H](CC(C)C)NC(=O)[C@H](CCCCN)NC(=O)[C@H](CC(C)C)NC(=O)[C@@H](NC(=O)[C@H](CCCCN)NC(=O)[C@@H](NC(=O)[C@H](C)NC(=O)[C@H](CCCCN)NC(=O)[C@H](CCCN=C(N)N)NC(=O)[C@H](CCCN=C(N)N)NC(=O)[C@@H](N)CCCCN)[C@@H](C)CC)[C@@H](C)CC)[C@@H](C)CC)C(=O)N[C@@H](CCCN=C(N)N)C(=O)N[C@@H](CCCCN)C(=O)N[C@@H](CCCCN)C(=O)N[C@@H](CCCN=C(N)N)C(N)=O [KRRKAIKILKLIAKAIRKKR] | 
5 |  |  |  |  |  |  |  | CC[C@H](C)[C@H](NC(=O)[C@H](CC(N)=O)NC(=O)[C@H](CCCN=C(N)N)NC(=O)[C@H](C)NC(=O)[C@H](CCSC)NC(=O)[C@H](CCCCN)NC(=O)[C@H](CCC(=O)O)NC(=O)[C@@H](NC(=O)[C@H](CCCCN)NC(=O)[C@H](CCCCN)NC(=O)[C@H](Cc1ccccc1)NC(=O)[C@@H](NC(=O)[C@H](CCCCN)NC(=O)[C@H](Cc1c[nH]c2ccccc12)NC(=O)[C@@H](N)CCCCN)C(C)C)[C@@H](C)CC)C(=O)N[C@@H](CCCN=C(N)N)C(=O)N[C@@H](CC(N)=O)C(=O)N[C@@H](CCCCN)C(=O)N[C@H](C(=O)N[C@H](C(=O)N[C@@H](CCCCN)C(N)=O)C(C)C)[C@@H](C)CC [KWKVFKKIEKMARNIRNKIVK] | MIC (Escherichia coli K-12): 6 µM (≈ 15.9 µg/mL); MIC [13]: > 3 µM; MIC [18]: > 12 µM
6 |  |  |  |  |  |  |  | CC[C@H](C)[C@H](NC(=O)[C@H](CCCN=C(N)N)NC(=O)[C@H](CCC(N)=O)NC(=O)[C@@H](NC(=O)[C@@H](NC(=O)[C@H](CCCN=C(N)N)NC(=O)[C@H](CCCN=C(N)N)NC(=O)[C@H](Cc1ccccc1)NC(=O)[C@H](CCC(=O)O)NC(=O)CN)[C@@H](C)CC)C(C)C)C(=O)N[C@@H](CCCN=C(N)N)C(=O)N[C@@H](CC(=O)O)C(=O)N[C@@H](Cc1ccccc1)C(=O)N[C@@H](CC(C)C)C(=O)N[C@@H](CCCN=C(N)N)C(=O)N[C@@H](CC(N)=O)C(=O)N[C@@H](CC(C)C)C(=O)N[C@H](C(N)=O)C(C)C [GEFRRIVQRIRDFLRNLV] | MIC (Escherichia coli K-12): ≥ 60 µM; MIC [19]: 30 µM (≈ 68.6 µg/mL)
7 |  | 0.146 µM (≈ 0.25 µg/mL) | 5.86 µM (≈ 9.99 µg/mL) | 0.0586 µM (≈ 0.1 µg/mL) | 0.0586 µM (≈ 0.1 µg/mL) | 1.46 µM (≈ 2.5 µg/mL) | 0.293 µM (≈ 0.5 µg/mL) | NCCCC[C@H](NC(=O)[C@H](Cc1ccccc1)NC(=O)[C@H](Cc1ccccc1)NC(=O)[C@H](CCCCN)NC(=O)[C@H](Cc1ccccc1)NC(=O)[C@H](CCCCN)NC(=O)[C@H](CCCCN)NC(=O)[C@H](CCCCN)NC(=O)[C@@H](N)CCCN=C(N)N)C(=O)N[C@@H](CCCN=C(N)N)C(=O)N[C@@H](Cc1ccccc1)C(=O)N[C@@H](Cc1ccccc1)C(N)=O [RKKKFKFFKRFF] | 
8 |  | 0.0414 µM (≈ 0.0999 µg/mL) | 4.14 µM (≈ 10 µg/mL) | 0.103 µM (≈ 0.25 µg/mL) | 4.14 µM (≈ 10 µg/mL) | 0.414 µM (≈ 1 µg/mL) | 0.0414 µM (≈ 0.0999 µg/mL) | CC(C)C[C@H](NC(=O)[C@H](C)NC(=O)[C@H](CC(C)C)NC(=O)[C@H](CCCN=C(N)N)NC(=O)[C@H](CCCN=C(N)N)NC(=O)[C@@H](N)CCCCN)C(=O)N[C@@H](Cc1ccccc1)C(=O)N[C@@H](CCCN=C(N)N)C(=O)N[C@@H](C)C(=O)N[C@@H](Cc1ccccc1)C(=O)N[C@@H](CCCN=C(N)N)C(=O)N[C@@H](CC(C)C)C(=O)N[C@@H](C)C(=O)N[C@@H](CC(C)C)C(=O)N[C@@H](CCCCN)C(=O)N[C@@H](CO)C(=O)N[C@H](C(=O)N[C@@H](CC(C)C)C(=O)N[C@@H](CCCCN)C(=O)N[C@@H](CCCCN)C(N)=O)C(C)C [KRRLALFRAFRLALKSVLKK] | 
9 |  |  |  |  |  |  |  | CC[C@H](C)[C@H](NC(=O)[C@H](CO)NC(=O)[C@H](CO)NC(=O)[C@@H](NC(=O)[C@H](CC(C)C)NC(=O)CN)C(C)C)C(=O)NCC(=O)N[C@@H](CCCCN)C(=O)N[C@H](C(=O)N[C@@H](CC(C)C)C(=O)NCC(=O)NCC(=O)N[C@@H](CC(C)C)C(=O)N[C@@H](CC(C)C)C(=O)N[C@@H](C)C(=O)N[C@@H](CC(=O)O)C(=O)N[C@H](C(=O)N[C@H](C(=O)N[C@@H](CCCCN)C(=O)N[C@@H](CO)C(=O)N[C@@H](CCCCN)C(=O)NCC(=O)N[C@@H](CCC(N)=O)C(=O)N1CCC[C@H]1C(=O)N[C@@H](C)C(=O)O)C(C)C)C(C)C)C(C)C [GLVSSIGKVLGGLLADVVKSKGQPA] | MIC (Leuconostoc lactis): 10.4 µM (≈ 25 µg/mL); MIC (Listeria innocua): ≥ 41.8 µM

Row | SMILES | MIC [2] | MIC [5] | MIC [6] | MIC [7] | MIC [8] | MIC [9] | MIC [10] | other results
10 | CC[C@H](C)[C@H](NC(=O)CN)C(=O)NCC(=O)NCC(=O)N[C@@H](CCCCN)C(=O)N[C@H](C(=O)N[C@@H](CC(C)C)C(=O)N[C@@H](CO)C(=O)NCC(=O)N[C@@H](CC(C)C)C(=O)N[C@@H](CCCCN)C(=O)N[C@H](C(=O)N[C@@H](C)C(=O)N[C@@H](CC(C)C)C(=O)N[C@@H](CCCCN)C(=O)NCC(=O)N[C@@H](C)C(=O)N[C@@H](C)C(=O)N[C@@H](CCCCN)C(=O)N[C@@H](CCC(=O)O)C(=O)N[C@@H](CC(C)C)C(=O)N[C@@H](C)C(=O)N[C@@H](CO)C(=O)N[C@H](C(=O)N[C@@H](Cc1ccc(O)cc1)C(=O)N[C@@H](CC(C)C)C(=O)N[C@@H](Cc1cnc[nH]1)C(=O)O)[C@@H](C)O)[C@@H](C)O)[C@@H](C)CC [GIGGKILSGLKTALKGAAKELASTYLH] | 0.334 µM (≈ 0.9 µg/mL) |  |  |  |  |  |  | MIC (Bacillus megaterium): 0.334 µM (≈ 0.9 µg/mL); MIC [1]: 5.56 µM (≈ 15 µg/mL); MIC (Klebsiella pneumoniae): 1.15 µM (≈ 3.1 µg/mL); MIC [3]: 0.556 µM (≈ 1.5 µg/mL); MIC (Shigella dysenteriae): 0.334 µM (≈ 0.9 µg/mL); MIC [4]: 1.15 µM (≈ 3.1 µg/mL)
